From patent US20060052289A1, “Use of somatostatin analogs in sleep apnea” (priority 2003, published 2006) come the findings set out here.

A short description of series [1]: Tolerability at dosages required for use. The format is in vivo. The conditions noted are these: free form or pharmaceutically acceptable salt form.
The test system of series [2] is patients with central sleep apnea. Kind of series: Clinical study in central sleep apnea. The format is in vivo, human. To be noted: s.c. 100-600 μg, 2 months. On the procedure:
Central Sleep Apnea: 10 patients with central sleep apnea associated with high ventilatory responses to carbon dioxide, are treated with a compound of the invention for 2 months. Sleep recordings, ventilatory control studies (blood gases) and endocrinological controls are performed before, on the first night, at 2 weeks and at 2 months of therapy. In this study, the compounds of the invention, e.g. Compound A, reduce the abnormal high ventilatory responses and the number of central sleep apnea episodes, when administered s.c. at a dose of 100-600 μg.

Series [3] deals with patients with predominantly obstructive sleep apnea. Kind of series: Clinical study in obstructive sleep apnea. The class given is in vivo, human. To be noted: s.c. 100-600 μg, 2 months. On the procedure:
Obstructive Sleep Apnea: 10 patients with predominantly obstructive sleep apnea are treated with Compound A for 2 months. Sleep recordings, blood gases evaluation and endocrinological controls are performed before, on the first night and at 2 months of therapy. In this study, the compounds of the invention, e.g. Compound A, reduce the number of obstructive sleep apnea episodes when administered s.c. at a dose of 100-600 μg.

Turning to “cyclo[{4-(NH2—C2H4—NH—CO—O—)Pro}-Phg-DTrp-Lys-Tyr(4-Bzl)-Phe] [Compound A]”, the tolerability entry in series [1] is recorded as “well tolerated”. In series [2], the “abnormal high ventilatory responses” value was “reduce” and the “number of central sleep apnea episodes” value is listed as “reduce”. The “number of obstructive sleep apnea episodes” value in series [3] is on record as “reduce”.
